Data reported in US20230405084A1, “USE OF PHOSPHATIDYLSERINE IN PREPARATION OF DRUG FOR TREATING INFLAMMATORY BOWEL DISEASE” (JIANGSU TARGET BIOMEDICAL RESEARCH INSTITUTE CO., LTD., priority 2020, published 2023).
Residue numbers refer to the chain shown, from its start.

Legend:
[1] = target: T1, Annexin A5-EGFP (wild-type Annexin A5 fused to EGFP) (Homo sapiens, UniProt P08758); test: MST analysis of protein binding ability to PS (Annexin A5-EGFP); details: fitted binding curve (Fnorm), in the presence of Ca^2+, protein fixed, gradient dilution of PS, 5 min at room temperature
T1 construct: E. coli BL21(DE3), pET-28a/kanamycin vector
T1 sequence (P08758 1-320): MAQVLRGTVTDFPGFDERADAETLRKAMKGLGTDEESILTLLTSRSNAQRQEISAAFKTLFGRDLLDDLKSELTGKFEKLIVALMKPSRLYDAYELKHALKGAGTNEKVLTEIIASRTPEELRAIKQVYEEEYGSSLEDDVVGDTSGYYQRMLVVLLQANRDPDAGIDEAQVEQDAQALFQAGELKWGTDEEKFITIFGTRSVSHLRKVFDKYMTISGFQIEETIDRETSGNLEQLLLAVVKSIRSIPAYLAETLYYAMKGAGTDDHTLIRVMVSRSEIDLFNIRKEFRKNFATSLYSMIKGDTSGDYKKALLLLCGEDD
Protocol: (§1) 3.2.9 MST Analysis of Protein Binding Ability to PS
(§2) MST is based on the phenomenon of thermophoresis of biomolecules in capillaries, resulting in changes in the properties of biomolecules, which are manifested in changes in the fluorescence distribution of the reaction system, and the fluorescence changes reflect the affinity of biomolecular interactions.
(§3) The MST experiment was conducted as follows.
(§4) (1) Non-fluorescent ligand preparation: 20 μL of the highest concentration unmarked PS molecules was prepared. 16 PCR tubes were labeled. 10 μL of buffer was added to each of 15 PCR tubes. 10 μL from PCR tube #1 was transferred to PCR tube #2 and mixed thoroughly. 10 μL from PCR tube #2 was transferred to PCR tube #3 and mixed thoroughly. Repeat this step in all sample tubes. Finally, 10 μL from PCR tube #16 was taken out and discard.
(§5) (2) Fluorescent ligand preparation: The fluorescent ligand was diluted to 2 times the concentration to be tested, and 10 μL was added respectively to PCR tubes 1-16 in sequence using a clean pipette tip, starting from the low concentration PCR tube to the highest concentration PCR tube.
(§6) (3) Incubation: The reaction solutions of the above tubes were mixed thoroughly and incubated for 5 min at room temperature away from light. […]

[2] = target: T2, Annexin A5m-EGFP (Annexin A5 variant Annexin A5m, R25A/K29S/R63S/D68A/E72Q/D144N/E228A/D303N, fused to EGFP) (Homo sapiens, UniProt P08758, D144N/D303N/D68A/E228A/E72Q/K29S/R25A/R63S); test: MST analysis of protein binding ability to PS (Annexin A5m-EGFP); details: in the presence of Ca^2+, failed to be fitted into a binding curve, protein fixed, gradient dilution of PS, 5 min at room temperature
T2 construct: pET-28a, E. coli BL21(DE3)
T2 sequence (P08758 1-320 R25A/K29S/R63S/D68A/E72Q/D144N/E228A/D303N): T1 sequence (P08758 1-320) with R25A, K29S, R63S, D68A, E72Q, D144N, E228A, D303N
Protocol: as §1, §2, §3, §4, §5, §6

Kd [1]: 13.8 µM
Kd value [2]: no Kd value
Substance: phosphatidylserine [PS]
